The source of these data is ChEMBL document CHEMBL4130615, “Evaluation of Diarylheptanoid-Terpene Adduct Enantiomers from Alpinia officinarum for Neuroprotective Activities” (J Nat Prod, 2018).

Activity calls are given as the source filed them. The rule behind the calls is not given here.

For test [1], the system named is Cortical neurone. Kind of test: Neuroprotective activity against MPP+-induced cell death in Sprague-Dawley rat cortical neurons assessed as increase in cell viability at 4 to 32 uM pretreated for 12 hrs followed by MPP+ challenge measured after 20 hrs by MTT assay. Type of test: functional, cell-based. In general terms: Tetrazolium assays rely on reduction of a dye to a coloured formazan, in cell work by metabolically active cells.

Test [2] concerns Cortical neurone. Kind of test: Neuroprotective activity against MPP+-induced cell death in Sprague-Dawley rat cortical neurons assessed as increase in cell viability at 16 uM pretreated for 12 hrs followed by MPP+ challenge measured after 20 hrs by MTT assay. Type of test: functional, cell-based.

With `C=CC(=C)CCC=C(C)C`, in test [1], the outcome was inactive.

`COc1cc(CC[C@@H]2CC=C(CCC=C(C)C)C[C@H]2C(=O)CCc2ccccc2)ccc1O`: the result in test [1] was inactive.

In the case of `COc1cc(CC[C@H]2CC=C(CCC=C(C)C)C[C@@H]2C(=O)CCc2ccccc2)ccc1O`, in test [2], the result was Active.

For `COc1cc(CC/C=C/C(=O)CCc2ccccc2)ccc1O`, the result in test [1] was inactive.
